This passage reports IC50 results from patent US8809336B2, “Ortho-condensed pyridine and pyrimidine derivatives (e.g., purines) as protein kinases inhibitors” (Astex Therapeutics Limited, priority 2004, dated 2014).

The target in assay [1] is T1, PKA catalytic domain (Homo sapiens, UniProt P17612).
T1 construct: using the PKA catalytic domain from Upstate Biotechnology (#14-440); purchased Upstate Biotechnology 14-440
Briefly: Measurement of PKA kinase inhibitory activity (IC50), 33P-ATP filter plate assay. It is filed as biochemical. The note with it: 1 nM enzyme, 40 μM ATP, 20 minutes; read-out: IC50, inhibition of PKA activity. Here is the method:
A final concentration of 1 nM enzyme is used in a buffer that includes 20 mM MOPS pH 7.2, 40 μM ATP/γ^33P-ATP and […] substrate. Compounds are added in dimethylsulphoxide (DMSO) solution to a final DMSO concentration of 2.5%. The reaction is allowed to proceed for 20 minutes before addition of excess orthophosphoric acid to quench activity. Unincorporated γ^33P-ATP is then separated from phosphorylated proteins on a Millipore MAPH filter plate. The plates are washed, scintillant is added and the plates are then subjected to counting on a Packard Topcount.

Assay [2] concerns the target T2, PKB-PIF fusion protein (Homo sapiens, UniProt P31751).
T2 construct: PIF (fusion partner); made in house
Briefly: Measurement of PKB kinase inhibitory activity (IC50), 33P-ATP phosphocellulose filter assay. It is filed as biochemical. The method, then: The inhibition of protein kinase B (PKB) activity by compounds can be determined essentially as described by Andjelkovic et al. (Mol. Cell. Biol. 19, 5061-5072 (1999)) but using a fusion protein described as PKB-PIF and described in full by Yang et al (Nature Structural Biology 9, 940-944 (2002)). […] A final concentration of 0.6 nM enzyme is used in a buffer that includes 20 mM MOPS pH 7.2, 30 μM ATP/γ^33P-ATP and 25 μM substrate.
Compounds are added in DMSO solution to a final DMSO concentration of 2.5%. The reaction is allowed to proceed for 20 minutes before addition of excess orthophosphoric acid to quench activity. The reaction mixture is transferred to a phosphocellulose filter plate where the peptide binds and the unused ATP is washed away. After washing, scintillant is added and the incorporated activity measured by scintillation counting.
The % inhibition of the PKB activity is calculated and plotted in order to determine the concentration of test compound required to inhibit 50% of the PKB activity (IC50).

The mark [3] stands for this setting: 0.6 nM enzyme, 30 μM ATP, 25 μM AKTide-2T substrate, 20 minutes, read-out: IC50, inhibition of PKB activity.

Like-named read-outs stand apart in the source and are kept apart here. A value given as a limit tells only on which side of the number the result lay.

In general, IC50 refers to the concentration that gives 50% inhibition.

T2 sequence (P31751 with tags, fused parts or gaps limits assumed): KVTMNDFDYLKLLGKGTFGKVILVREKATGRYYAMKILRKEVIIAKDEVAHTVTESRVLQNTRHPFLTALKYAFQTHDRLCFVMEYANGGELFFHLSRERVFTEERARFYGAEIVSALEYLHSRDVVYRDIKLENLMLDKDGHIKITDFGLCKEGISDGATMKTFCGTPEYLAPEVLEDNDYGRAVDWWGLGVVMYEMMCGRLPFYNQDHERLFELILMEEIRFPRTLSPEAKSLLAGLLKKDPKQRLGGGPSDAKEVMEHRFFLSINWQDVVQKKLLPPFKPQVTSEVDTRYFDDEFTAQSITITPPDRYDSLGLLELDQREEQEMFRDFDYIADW

As to `CNC1CCN(c2ncnc3[nH]cnc23)CC1` [Example 1, Methyl-[1-(9H-purin-6-yl)-piperidin-4-yl]-amine], the concentration for half-maximal inhibition (IC50) in assay [1] and in assay [2] (setting [3]) was below 10 µM each time.

`c1ccc(CNC2CCN(c3ncnc4[nH]cnc34)CC2)cc1` [Example 2, Benzyl-[1-(9H-purin-6-yl)-piperidin-4-yl]-amine]: the IC50 in assay [2] (setting [3]) is below 10 µM.

For `NC1CCN(c2ncnc3[nH]c(=O)[nH]c23)CC1` [Example 4, 6-(4-Aminopiperidin-1-yl)-7,9-dihydropurin-8-one], the IC50 in assay [1] was below 50 µM; in assay [2] (setting [3]) it was below 10 µM.

In the case of `O=c1[nH]c2ncnc(N3CCC(O)(Cc4ccccc4)CC3)c2[nH]1` [Example 5, 6-(4-Benzyl-4-hydroxypiperidin-1-yl)-7,9-dihydropurin-8-one], the IC50 in assay [1] and in assay [2] (setting [3]) was below 50 µM each time.

For `O=c1[nH]c2ncnc(N3CCNCC3)c2[nH]1` [Example 6, 6-(Piperazin-1-yl)-7,9-dihydropurin-8-one], the 50% inhibitory concentration (IC50) in assay [1] and in assay [2] (setting [3]) was below 10 µM throughout.

As to `O=c1[nH]c2ncnc(N3CCN[C@H](COCc4ccccc4)C3)c2[nH]1` [Example 7, (3S)-6-(3-Benzyloxymethylpiperazin-1-yl)-7,9-dihydropurin-8-one], the IC50 in assay [1] and in assay [2] (setting [3]) was below 50 µM in each case.

As for `O=c1[nH]c2ncnc(N3CCC(NCCc4ccccc4)CC3)c2[nH]1` [Example 8, 6-(4-Phenethylaminopiperidin-1-yl)-7,9-dihydro-purin-8-one], the 50% inhibitory concentration (IC50) in assay [1] and in assay [2] (setting [3]) was below 10 µM throughout.

Take `O=c1[nH]c2ncnc(N3CCC(NCc4ccccc4Cl)CC3)c2[nH]1` [Example 9, 6-[4-(2-Chlorobenzylamino)-piperidin-1-yl]-7,9-dihydro-purin-8-one]: the concentration for half-maximal inhibition (IC50) in assay [1] and in assay [2] (setting [3]) was below 50 µM each time.

Turning to `NCC1(c2ccc(Cl)cc2)CCN(c2ncnc3[nH]cnc23)CC1` [Example 15, C-[4-(4-Chloro-phenyl)-1-(9H-purin-6-yl)-piperidin-4-yl]-methylamine], the IC50 in assay [2] (setting [3]) is below 10 µM.

Take `NC1(Cc2ccccc2)CCN(c2ncnc3[nH]cnc23)CC1` [Example 16, 4-Benzyl-1-(9H-purin-6-yl)piperidin-4-ylamine]: in assay [2] (setting [3]), the half-inhibitory concentration (IC50) is below 10 µM.

Consider `NCC1(c2ccc(Cl)cc2)CCN(c2ccnc3[nH]ccc23)CC1` [Example 21, C-[4-(4-Chlorophenyl)-1-(1H-pyrrolo[2,3-b]pyridin-4-yl)piperidin-4-yl]methylamine], for which the IC50 in assay [2] (setting [3]) is below 10 µM.

`CCn1c(=O)[nH]c2ncnc(N3CCC(CN)(c4ccc(Cl)cc4)CC3)c21` [Example 22, 6-[4-Aminomethyl-4-(4-chlorophenyl)piperidin-1-yl]-7-ethyl-7,9-dihydro-purin-8-one]: in assay [2] (setting [3]), the half-inhibitory concentration (IC50) was below 10 µM.

On to `NCC1(Cc2ccc(Cl)cc2)CCN(c2ncnc3[nH]cnc23)CC1` [Example 23, C-[4-(4-Chlorobenzyl)-1-(9H-purin-6-yl)piperidin-4-yl]methylamine], for which, in assay [2] (setting [3]), the concentration for half-maximal inhibition (IC50) is below 10 µM.

Regarding `N#CC1(c2ccc(Cl)cc2)CCN(c2ncnc3[nH]ccc23)CC1` [Example 24, 4-(4-Chlorophenyl)-1-(7H-pyrrolo[2,3-d]pyrimidin-4-yl)piperidine-4-carbonitrile], the half-inhibitory concentration (IC50) in assay [2] was below 10 µM.

As to `NCC1(c2cccc(Cl)c2)CCN(c2ncnc3[nH]cnc23)CC1` [Example 27, C-[4-(3-Chlorophenyl)-1-(9H-purin-6-yl)piperidin-4-yl]methylamine], in assay [2] (setting [3]), the IC50 was below 10 µM.

In the case of `NCC1(c2ccc(Cl)c(Cl)c2)CCN(c2ncnc3[nH]cnc23)CC1` [Example 29, C-[4-(3,4-Dichlorophenyl)-1-(9H-purin-6-yl)piperidin-4-yl]methylamine], the IC50 in assay [2] (setting [3]) is below 10 µM.

As to `NCC1(c2ccc(OC(F)(F)F)cc2)CCN(c2ncnc3[nH]ccc23)CC1` [Example 30], in assay [2] (setting [3]), the IC50 was below 10 µM.

For the molecule `NCC1(c2ccc(C(F)(F)F)cc2)CCN(c2ncnc3[nH]cnc23)CC1` [Example 33, C-[1-(9H-Purin-6-yl)-4-(4-trifluoromethylphenyl)piperidin-4-yl]methylamine], the IC50 in assay [2] (setting [3]) was below 10 µM.

For `NCC1(c2cccc(C(F)(F)F)c2)CCN(c2ncnc3[nH]ccc23)CC1` [Example 34, C-[1-(7H-Pyrrolo[2,3-d]pyrimidin-4-yl)-4-(3-trifluoromethylphenyl)piperidin-4-yl]methylamine], the 50% inhibitory concentration (IC50) in assay [2] (setting [3]) was below 10 µM.

Take `NCC1(c2cccc(C(F)(F)F)c2)CCN(c2ncnc3[nH]cnc23)CC1` [Example 35, C-[1-(9H-Purin-6-yl)-4-(3-trifluoromethylphenyl)piperidin-4-yl]methylamine]: the 50% inhibitory concentration (IC50) in assay [2] (setting [3]) is below 10 µM.

In the case of `NCC1(c2ccc(F)c(F)c2)CCN(c2ncnc3[nH]ccc23)CC1` [Example 36, C-[4-(3,4-Difluorophenyl)-1-(7H-pyrrolo[2,3-d]pyrimidin-4-yl)piperidin-4-yl]methylamine], the 50% inhibitory concentration (IC50) in assay [2] (setting [3]) is below 10 µM.

On to `NCC1(c2ccc(F)c(F)c2)CCN(c2ncnc3[nH]cnc23)CC1` [Example 37, C-[4-(3,4-Difluorophenyl)-1-(9H-purin-6-yl)piperidin-4-yl]methylamine], for which the IC50 in assay [2] (setting [3]) was below 10 µM.

Take `COc1ccc(C2(CN)CCN(c3ncnc4[nH]cnc34)CC2)cc1` [Example 39, C-[4-(4-Methoxyphenyl)-1-(9H-purin-6-yl)piperidin-4-yl]methylamine]: the IC50 in assay [2] (setting [3]) was below 10 µM.

Take `NCC1(c2ccc(OCc3ccccc3)cc2)CCN(c2ncnc3[nH]cnc23)CC1` [Example 41, C-[4-(4-Benzyloxyphenyl)-1-(9H-purin-6-yl)piperidin-4-yl]methylamine]: the 50% inhibitory concentration (IC50) in assay [2] (setting [3]) is below 10 µM.

On to `CC(C)NCC1(c2ccc(Cl)cc2)CCN(c2ncnc3[nH]ccc23)CC1` [Example 43, [4-(4-Chlorophenyl)-1-(7H-pyrrolo[2,3-d]pyrimidin-4-yl)-piperidin-4-ylmethyl]-isopropylamine], for which, in assay [2] (setting [3]), the IC50 is below 10 µM.

In the case of `NCC1(Cc2ccc(Cl)c(Cl)c2)CCN(c2ncnc3[nH]ccc23)CC1` [Example 45, C-[4-(3,4-Dichlorobenzyl)-1-(7H-pyrrolo[2,3-d]pyrimidin-4-yl)piperidin-4-yl]methylamine], the half-inhibitory concentration (IC50) in assay [2] (setting [3]) was below 10 µM.

Take `NCC1(Cc2ccc(Cl)c(Cl)c2)CCN(c2ncnc3[nH]cnc23)CC1` [Example 46, C-[4-(3,4-Dichlorobenzyl)-1-(9H-purin-6-yl)piperidin-4-yl]methylamine]: in assay [2] (setting [3]), the half-maximal inhibitory concentration (IC50) is below 10 µM.

As for `NCC1(Cc2ccc(OC(F)(F)F)cc2)CCN(c2ncnc3[nH]ccc23)CC1` [Example 47, C-[1-(7H-Pyrrolo[2,3-d]pyrimidin-4-yl)-4-(4-trifluoromethoxybenzyl)piperidin-4-yl]methylamine], the half-maximal inhibitory concentration (IC50) in assay [2] (setting [3]) is below 10 µM.

For `NCC1(Cc2ccc(OC(F)(F)F)cc2)CCN(c2ncnc3[nH]cnc23)CC1` [Example 48, C-[1-(9H-Purin-6-yl)-4-(4-trifluoromethoxybenzyl)piperidin-4-yl]methylamine], the IC50 in assay [2] (setting [3]) is below 10 µM.

Regarding `NC1(Cc2ccc(Cl)c(Cl)c2)CCN(c2ncnc3[nH]cnc23)CC1` [Example 50, 4-(3,4-Dichlorobenzyl)-1-(9H-purin-6-yl)piperidin-4-yl amine], the IC50 in assay [2] (setting [3]) is below 10 µM.

`NC1(Cc2ccc(OC(F)(F)F)cc2)CCN(c2ncnc3[nH]cnc23)CC1` [Example 52, 1-(9H-Purin-6-yl)-4-(4-trifluoromethoxybenzyl)piperidin-4-ylamine]: the half-maximal inhibitory concentration (IC50) in assay [2] (setting [3]) was below 10 µM.
